Assay results as given in the supplement of paper PMC10307832.

Assays:
Assay in all cases: relative viability (nuclei count vs DMSO), 5 days (fraction); higher = more cells survive
Trametinib + Navitoclax = compound: CC(=O)Nc1cccc(-n2c(=O)n(C3CC3)c(=O)c3c(Nc4ccc(I)cc4F)n(C)c(=O)c(C)c32)c1 [Trametinib] + CC1(C)CCC(c2ccc(Cl)cc2)=C(CN2CCN(c3ccc(C(=O)NS(=O)(=O)c4ccc(N[C@H](CCN5CCOCC5)CSc5ccccc5)c(S(=O)(=O)C(F)(F)F)c4)cc3)CC2)C1 [Navitoclax] (partner 0.5 µM)
In short: (§1)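 Cells from lung cancer lines were seeded into 1536-well plates and, one day later, dosed by pin tool. Treatments were either a single drug or a fixed dose of an anchor drug with five library-drug doses (not always all listed) in √10 steps. After 5 days, nuclei were stained in a one-step fixation (final 0.05% Triton X-100, 1% formaldehyde, 1 ug/ml Hoechst) and counted on 4× images, and relative viability is the treated-to-vehicle nuclei ratio, as the median of duplicate plates.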

Trametinib + Luminespib = compound: CC(=O)Nc1cccc(-n2c(=O)n(C3CC3)c(=O)c3c(Nc4ccc(I)cc4F)n(C)c(=O)c(C)c32)c1 [Trametinib] + CCNC(=O)c1noc(-c2cc(C(C)C)c(O)cc2O)c1-c1ccc(CN2CCOCC2)cc1 [Luminespib] (partner 0.01 µM)
In short: as §1

Trametinib + Decitabine = compound: CC(=O)Nc1cccc(-n2c(=O)n(C3CC3)c(=O)c3c(Nc4ccc(I)cc4F)n(C)c(=O)c(C)c32)c1 [Trametinib] + Nc1ncn([C@H]2C[C@H](O)[C@@H](CO)O2)c(=O)n1 [Decitabine] (partner 2 µM)
In short: as §1

[1] = compound: CN1C=C(C2=CC=CC=C21)/C=C\3/C4=C(C=CC=N4)NC3=O + Cc1cc(Nc2cc(N3CCN(C)CC3)nc(Sc3ccc(NC(=O)C4CC4)cc3)n2)n[nH]1 [Tozasertib] (partner 0.1 µM)
In short: as §1

| Cell Line | relative viability (Trametinib + Navitoclax; first compound 0.0025 µM) | relative viability (Trametinib + Navitoclax; first compound 0.007906 µM) | relative viability (Trametinib + Navitoclax; first compound 0.025 µM) | relative viability (Trametinib + Navitoclax; first compound 0.07906 µM) | relative viability (Trametinib + Navitoclax; first compound 0.25 µM) | relative viability (Trametinib + Luminespib; first compound 0.0025 µM) | relative viability (Trametinib + Luminespib; first compound 0.007906 µM) | relative viability (Trametinib + Luminespib; first compound 0.025 µM) | relative viability (Trametinib + Luminespib; first compound 0.07906 µM) | relative viability (Trametinib + Luminespib; first compound 0.25 µM) | relative viability (Trametinib + Decitabine; first compound 0.0025 µM) | relative viability (Trametinib + Decitabine; first compound 0.007906 µM) | relative viability (Trametinib + Decitabine; first compound 0.025 µM) | relative viability (Trametinib + Decitabine; first compound 0.07906 µM) | relative viability (Trametinib + Decitabine; first compound 0.25 µM) | relative viability ([1]; first compound 0.02 µM) | relative viability ([1]; first compound 0.06325 µM) | relative viability ([1]; first compound 0.2 µM) | relative viability ([1]; first compound 0.6325 µM) | relative viability ([1]; first compound 2 µM) |
| --- | --- | --- | --- | --- | --- | --- | --- | --- | --- | --- | --- | --- | --- | --- | --- | --- | --- | --- | --- | --- |
| NCI-H2087 | 0.718 | 0.406 | 0.244 | 0.223 | 0.257 | 0.17 | 0.137 | 0.137 | 0.141 | 0.148 | 0.207 | 0.203 | 0.148 | 0.117 | 0.125 | 0.227 | 0.245 | 0.249 | 0.189 | 0.212 |
| NCI-H2126 | 0.781 | 0.684 | 0.516 | 0.589 | 0.508 | 0.871 | 0.754 | 0.509 | 0.731 | 0.564 | 0.574 | 0.558 | 0.514 | 0.535 | 0.523 | 0.85 | 0.756 | 0.807 | 0.807 | 0.836 |
| NCI-H2170 | 0.636 | 0.521 |  | 0.425 | 0.448 | 0.58 | 0.749 | 0.399 | 0.559 | 0.431 | 0.491 | 0.451 |  | 0.435 | 0.425 | 0.549 | 0.721 | 0.737 | 0.79 | 0.72 |
| NCI-H2347 | 0.678 | 0.328 | 0.143 | 0.198 | 0.215 | 0.513 | 0.254 | 0.205 | 0.208 | 0.303 | 0.521 | 0.514 | 0.395 | 0.358 | 0.397 |  | 0.421 | 0.556 | 0.512 | 0.681 |
| NCI-H2405 | 0.732 | 0.515 | 0.48 | 0.423 | 0.305 | 0.529 | 0.591 | 0.395 | 0.338 | 0.306 | 0.777 | 0.66 | 0.586 |  | 0.544 | 0.742 | 0.717 | 0.67 | 0.721 | 0.731 |
| NCI-H3122 | 0.937 | 0.867 | 0.508 | 0.548 | 0.435 | 0.103 | 0.0926 | 0.0926 | 0.0939 | 0.0775 | 0.416 | 0.383 | 0.315 | 0.279 | 0.268 | 0.37 | 0.343 |  | 0.398 | 0.49 |
| PC-3 [JPC-3] | 0.815 | 0.793 | 0.709 | 0.705 | 0.455 | 0.656 | 0.574 | 0.385 | 0.405 | 0.396 | 0.807 | 0.724 | 0.757 |  | 0.632 | 0.863 | 0.897 | 0.92 | 0.746 | 0.913 |
| PC-14 | 0.99 | 1.05 | 0.978 | 0.882 | 0.452 | 0.125 | 0.147 | 0.127 | 0.152 | 0.147 | 0.229 | 0.184 | 0.286 | 0.145 | 0.125 | 0.564 | 0.525 | 0.585 | 0.553 | 0.541 |
| RERF-LC-KJ | 0.948 | 1.09 | 0.968 | 0.966 | 0.717 | 1.21 | 1.19 | 1.14 | 1.09 | 0.736 | 0.683 | 0.68 | 0.609 | 0.695 | 0.475 | 0.428 | 0.407 | 0.621 | 0.558 | 0.512 |
| SK-LU-1 | 0.971 | 0.929 | 0.65 | 0.337 | 0.296 | 0.216 | 0.187 | 0.176 | 0.17 | 0.159 | 0.585 | 0.632 | 0.473 | 0.431 | 0.455 | 0.23 | 0.244 | 0.316 | 0.287 | 0.316 |
| SK-MES-1 | 1.3 | 1.25 | 0.943 | 0.624 | 0.357 | 0.498 | 0.368 | 0.277 | 0.231 | 0.207 | 0.381 | 0.304 | 0.341 | 0.247 | 0.273 | 0.945 | 0.749 | 0.917 | 0.874 | 0.886 |
| SW 1573 | 0.723 | 0.885 | 0.609 | 0.546 | 0.404 | 0.181 | 0.237 | 0.13 | 0.157 | 0.163 | 0.393 | 0.37 | 0.317 | 0.308 | 0.181 | 0.161 | 0.209 | 0.19 | 0.156 | 0.193 |
